pEC50: −log10 of the molar value. Active and inactive are the calls of the source. The rule behind the calls is not given here.

Assay [1] is described as follows: Anti-prion activity against [PSI+] protein in Saccharomyces cerevisiae STRg6 measured after 96 hrs by fluorimetry analysis.
Assay [2] addresses Alpha-synuclein (Homo sapiens) (UniProt P37840). As to the kind of experiment: Inhibition of human alpha-synuclein aggregation expressed in Escherichia coli BL21 (DE3) cells at 400 uM at 5:1 molar ratio after 72 hrs by ThT fluorescence assay relative to control. Also noted: scale not given: the % may be the effect or the level left.
The target is the same in assay [3]. The assay can be described thus: Binding affinity to human alpha-synuclein aggregation expressed in Escherichia coli BL21 (DE3) cells at 50 uM at 1:1 molar ratio after 3 hrs by (+) HRESIMS analysis.
A further assay concerns Saccharomyces cerevisiae. As to the kind of experiment: Anti-prion activity against [URE3] protein in Saccharomyces cerevisiae SB34 at 100 uM measured after 96 hrs by fluorimetry analysis.

As usually defined, the pEC50 is the EC50 on a negative log10 scale, so that one unit is a factor of ten. `C[C@@H](C/C=C/[C@@H](C)[C@H]1CC[C@@H]2[C@]1(C)CC[C@@H]1[C@@]3(C)CC[C@@H](O)C[C@@H]3C[C@@H](O)[C@]12O)COS(=O)(=O)O` (relative stereo) had a pEC50 in assay [1] of 4.86.

`CC(/C=C/[C@@H](C)[C@H]1CC[C@@H]2[C@]1(C)CC[C@@H]1[C@@]3(C)CC[C@@H](O)C[C@@H]3C[C@@H](O)[C@]12O)C(C)COS(=O)(=O)O` (some centres undefined) gave a negative-log EC50 (pEC50) in assay [1] of 5.01.

Take `O=C(O[C@@H]1Cc2c(O)cc(O)cc2O[C@@H]1c1cc(O)c(O)c(O)c1)c1cc(O)c(O)c(O)c1`: in assay [2], the Activity was determined as 96.3%.

With `CC(CCC[C@@H](C)[C@H]1CC[C@@H]2[C@]1(C)CC[C@@H]1[C@@]3(C)CC[C@@H](O)C[C@@H]3C[C@@H](O)[C@]12O)COS(=O)(=O)O` (some centres undefined), in assay [1], the pEC50 is 4.90. The outcome (in assay [3]; in the assay with Saccharomyces cerevisiae) was Active. The Activity in assay [2] was found to be 68%.

On to `N=C(N)N/N=C/c1c(Cl)cccc1Cl` [GUANABENZ], for which the pEC50 in assay [1] is 4.59. Also, the result in the assay with Saccharomyces cerevisiae was Active.

For the origin of these results see ChEMBL document CHEMBL4673341, “Anti-prion and α-Synuclein Aggregation Inhibitory Sterols from the Sponge Lamellodysidea cf. chlorea” (J Nat Prod, 2020).
